Experimental data taken from patent US20230227466A1, “SUBSTITUTED THIENOPYRIMIDINES THAT INTERACT WITH THE RAS SUPERFAMILY FOR THE TREATMENT OF CANCERS, INFLAMMATORY DISEASES, RASOPATHIES, AND FIBROTIC DISEASE” (SHY Therapeutics, LLC, priority 2020, published 2023).
Where two headings read alike, the source gives them in different places.

Legend:
[1] = tested on: ERK1/2 phosphorylation in Panc-1 cells; assay: Western ERK1/2 cell-based phosphorylation assay; set-up: species or system human; conditions: at 10 μM, values in brackets < > are activation %, not inhibition
Description: Cell lines: Human tumor-derived pancreatic cancer cell line Panc-1 was purchased from American Type Culture Collection and grown in complete DMEM-High Glucose, supplemented with penicillin (100 U/mL), streptomycin (100 μg/mL), and 10% heat-inactivated FBS at 37° C. in a humidified incubator with 5% CO2.
Method: Cells were plated at 350000 cells/well density in a 12-well plate, allowed 3 hours to adhere to the plate, then starved in the appropriate medium in the presence of 0.5% FBS overnight. The small molecules to be tested were added to the cells in the final concentration of 10 μM in the presence of 0.3% DMSO for 6 hours incubation at 37° C. For IC50 value determination, serial dilutions of compounds were added to cells under the same conditions. Next, cells were stimulated with 1.5 ng/ml EGF for 15 minutes then cells were lysed with lysis buffer containing 1% Triton X-100, EDTA, and Halt™ Protease & Phosphatase Inhibitor Cocktail (Thermo Scientific). Protein concentration was assessed by BCA protein assay (Thermo Scientific). Phosphorylation level of ERK1/2 was determined by western blot.
Western blot protocol: Equal amounts of protein (15-50 μg) were separated by SDS-PAGE and transferred to nitrocellulose membranes (Invitrogen by Thermo Fisher Scientific). The membrane was stained with Ponceau S Stain (Boston BioProducts) to verify uniform protein loading. Membranes were blocked with 10% milk and phosphorylation levels of ERK1/2 were assessed by incubating overnight at 4° C. with anti-phospho-p44/42 (Thr202/Tyr204) antibody (Cell Signaling) followed by HRP-conjugated secondary antibody (Jackson Immunoresearch, West Grove, Pa.). Bands were incubated in Amersham ECL Prime Western Blotting Detection Reagent (GE Healthcare) and visualized using the ChemiDoc MP imaging system (Bio-Rad). Protocol for Western AKT cell-based phosphorylation assay

[2] = target: T1, KRas Q61H mutant (Homo sapiens, UniProt P01116, Q61H); assay: Ras GTP binding domain inhibition assay (labeled-GTP competition, cell-free); conditions: at 20 μM
T1 construct: made in house
Outline: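 Immobilized His-tagged protein (Ni plate, 10-30 μg/mL, overnight 4° C); compound 20 μM or dilution series, 1% DMSO, 3 h RT, ±Sos 556-1049 last hour; Cy3/Cy5-GTP 100 nM, 45 min RT; 3× wash; bound fluorescence read.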

[3] = with SOS, read-out: KRas Q61H mutant + SOS: % inh.
[4] = without SOS, read-out: KRas Q61H mutant: % inh.

Row | SMILES | % inh of ERK1/2 phosphorylation in PANC-1 [1] | inhibition at 20 µM [2, 3] [%] | inhibition at 20 µM [2, 4] [%]
1 | CO[C@H]1C[C@@H](Nc2nc(-c3nccn3C)nc3sc(-c4ccn(C(C)C)n4)c(C)c23)C[C@H]1OC [Compound 42, N-((1r,3R,4S)-3,4-Dimethoxycyclopentyl)-6-(1-isopropyl-1H-pyrazol-3-yl)-5-methyl-2-(1-methyl-1H-imidazol-2-yl)thieno[2,3-d]pyrimidin-4-amine] | B (26-50% inhibition) | 76 to 100 | 76 to 100
2 | CO[C@H]1C[C@H](Nc2nc(-c3nccn3C)nc3sc(-c4ccn(C(C)C)n4)c(C)c23)C[C@H]1OC [Compound 43, N-((1s,3R,4S)-3,4-Dimethoxycyclopentyl)-6-(1-isopropyl-1H-pyrazol-3-yl)-5-methyl-2-(1-methyl-1H-imidazol-2-yl)thieno[2,3-d]pyrimidin-4-amine] | B (26-50% inhibition) | 76 to 100 | 1 to 25
3 | Cc1c(-c2ccn(C(C)C)n2)sc2nc(-c3nccn3C)nc(NCCc3nnn[nH]3)c12 [Compound 46, N-(2-(1H-Tetrazol-5-yl)ethyl)-6-(1-isopropyl-1H-pyrazol-3-yl)-5-methyl-2-(1-methyl-1H-imidazol-2-yl)thieno[2,3-d]pyrimidin-4-amine] | 0 (0% inhibition) | 76 to 100 | 76 to 100
4 | CO[C@H]1C[C@@H](CNc2nc(-c3nccn3C)nc3sc(-c4ccn(C(C)C)n4)c(C)c23)C1 [Compound 47, 6-(1-Isopropyl-1H-pyrazol-3-yl)-N-(((1s,3s)-3-methoxycyclobutyl)methyl)-5-methyl-2-(1-methyl-1H-imidazol-2-yl)thieno[2,3-d]pyrimidin-4-amine] | D (76-100% inhibition) | 76 to 100 | 51 to 75
5 | CO[C@H]1C[C@H](CNc2nc(-c3nccn3C)nc3sc(-c4ccn(C(C)C)n4)c(C)c23)C1 [Compound 48, 6-(1-Isopropyl-1H-pyrazol-3-yl)-N-(((1r,3r)-3-methoxycyclobutyl)methyl)-5-methyl-2-(1-methyl-1H-imidazol-2-yl)thieno[2,3-d]pyrimidin-4-amine] | D (76-100% inhibition) | 51 to 75 | 51 to 75
6 | CO[C@H]1CCCN(c2nc(-c3nccn3C)nc3sc(-c4ccn(C(C)C)n4)c(C)c23)C1 [Compound 49, (S)-6-(1-Isopropyl-1H-pyrazol-3-yl)-4-(3-methoxypiperidin-1-yl)-5-methyl-2-(1-methyl-1H-imidazol-2-yl)thieno[2,3-d]pyrimidine] | D (76-100% inhibition) | 51 to 75 | 51 to 75
7 | CO[C@@H]1CCCN(c2nc(-c3nccn3C)nc3sc(-c4ccn(C(C)C)n4)c(C)c23)C1 [Compound 50, (R)-6-(1-Isopropyl-1H-pyrazol-3-yl)-4-(3-methoxypiperidin-1-yl)-5-methyl-2-(1-methyl-1H-imidazol-2-yl)thieno[2,3-d]pyrimidine] | D (76-100% inhibition) | 51 to 75 | 26 to 50
8 | Cc1c(-c2ccn(C(C)C)n2)sc2nc(-c3nccn3C)nc(NC[C@@H]3CCC(=O)N3)c12 [Compound 51] | 0 (0% inhibition) | 51 to 75 | 51 to 75
9 | Cc1c(-c2ccn(C(C)C)n2)sc2nc(-c3nccn3C)nc(NC[C@H]3CCC(=O)N3)c12 [Compound 52, (R)-5-(((6-(1-Isopropyl-1H-pyrazol-3-yl)-5-methyl-2-(1-methyl-1H-imidazol-2-yl)thieno[2,3-d]pyrimidin-4-yl)amino)methyl)pyrrolidin-2-one] | 0 (0% inhibition) | 51 to 75 | 51 to 75
10 | Cc1c(-c2ccn(C(C)C)n2)sc2nc(-c3nccn3C)nc(NCCc3ncc[nH]3)c12 [Compound 53, N-(2-(1H-Imidazol-2-yl)ethyl)-6-(1-isopropyl-1H-pyrazol-3-yl)-5-methyl-2-(1-methyl-1H-imidazol-2-yl)thieno[2,3-d]pyrimidin-4-amine] | 0 (0% inhibition) | 26 to 50 | 26 to 50
11 | CO[C@H]1CC[C@H](Nc2nc(-c3nccn3C)nc3sc(-c4ccn(C(C)C)n4)c(C)c23)CC1 [Compound 54] | D (76-100% inhibition) | 76 to 100 | 51 to 75
12 | CO[C@H]1CC[C@@H](Nc2nc(-c3nccn3C)nc3sc(-c4ccn(C(C)C)n4)c(C)c23)CC1 [Compound 55] | D (76-100% inhibition) | 26 to 50 | 1 to 25
13 | Cc1c(-c2ccn(C(C)C)n2)sc2nc(-c3nccn3C)nc(NCc3ncc[nH]3)c12 [Compound 57, N-((1H-Imidazol-2-yl)methyl)-6-(1-isopropyl-1H-pyrazol-3-yl)-5-methyl-2-(1-methyl-1H-imidazol-2-yl)thieno[2,3-d]pyrimidin-4-amine] | A (1-25% inhibition) | 26 to 50 | 26 to 50
14 | Cc1c(-c2ccn(C(C)C)n2)sc2nc(-c3nccn3C)nc(NCCc3cn(C)cn3)c12 [Compound 58, 6-(1-Isopropyl-1H-pyrazol-3-yl)-5-methyl-2-(1-methyl-1H-imidazol-2-yl)-N-(2-(1-methyl-1H-imidazol-4-yl)ethyl)thieno[2,3-d]pyrimidin-4-amine] | A (1-25% inhibition) | 51 to 75 | 51 to 75
15 | Cc1c(-c2ccn(C(C)C)n2)sc2nc(-c3nccn3C)nc(NCc3c[nH]cn3)c12 [Compound 59, N-((1H-Imidazol-4-yl)methyl)-6-(1-isopropyl-1H-pyrazol-3-yl)-5-methyl-2-(1-methyl-1H-imidazol-2-yl)thieno[2,3-d]pyrimidin-4-amine] | 0 (0% inhibition) | 76 to 100 | 51 to 75
16 | Cc1c(-c2ccn(C(C)C)n2)sc2nc(-c3nccn3C)nc(NCc3n[nH]c(=O)n3C)c12 [Compound 60, 5-(((6-(1-Isopropyl-1H-pyrazol-3-yl)-5-methyl-2-(1-methyl-1H-imidazol-2-yl)thieno[2,3-d]pyrimidin-4-yl)amino)methyl)-4-methyl-2,4-dihydro-3H-1,2,4-triazol-3-one] | 0 (0% inhibition) | 51 to 75 | 51 to 75
17 | COc1cccc(Nc2nc(-c3nccn3C)nc3sc(-c4ccn(C(C)C)n4)c(C)c23)c1 [Compound 64, 6-(1-Isopropyl-1H-pyrazol-3-yl)-N-(3-methoxyphenyl)-5-methyl-2-(1-methyl-1H-imidazol-2-yl)thieno[2,3-d]pyrimidin-4-amine] | D (76-100% inhibition) | 76 to 100 | 26 to 50
18 | COc1cccc(Nc2nc(-c3nccn3C)nc3sc(-c4ccn(C(C)C)n4)c(C)c23)n1.Cl [Compound 65, 6-(1-Isopropyl-1H-pyrazol-3-yl)-N-(6-methoxypyridin-2-yl)-5-methyl-2-(1-methyl-1H-imidazol-2-yl)thieno[2,3-d]pyrimidin-4-amine hydrochloride salt] | D (76-100% inhibition) | 51 to 75 | 26 to 50
